In patent US10596166B2, “Combination composition comprising huperzine” (priority 2015, dated 2020):

Test system: TH positive dopaminergic neurons injured with MPP+
Test: MPP+ toxicity on TH positive dopaminergic neurons of primary mesencephalic culture
Type: cell-based, rat
Settings: MPP+ 4 μM, 48 h
Protocol: Rat dopaminergic neurons were cultured as described by Schinelli et al., J Neurochem. 1988 June; 50(6):1900-7 and Visanji et al., 2008 [previously cited].
Briefly, the midbrains obtained from 15-days old rat embryos (Janvier Labs, France) were dissected under a microscope. The embryonic midbrains were removed and placed in ice-cold medium of Leibovitz (L15, Pan Biotech) containing 2% of Penicillin-Streptomycin (PS, Pan Biotech) and 1% of bovine serum albumin (BSA, Pan Biotech). The ventral portion of the mesencephalic flexure, a region of the developing brain rich in dopaminergic neurons, was used for the cell preparations.
The midbrains were dissociated by trypsinisation for 20 min at 37° C. (Trypsin 0.05% EDTA 0.02%, PanBiotech). The reaction was stopped by the addition of Dulbecco's modified Eagle's medium (DMEM, PanBiotech) containing DNAase I grade II (0.1 mg/ml, PanBiotech) and 10% of foetal calf serum (FCS, Gibco). Cells were then mechanically dissociated by 3 passages through a 10 ml pipette. Cells were then centrifuged at 180×g for 10 min at +4° C. on a layer of BSA (3.5%) in L15 medium. The supernatant was discarded and the cell pellets were re-suspended in a defined culture medium consisting of Neurobasal (Invitrogen) supplemented with B27 (2%, Invitrogen, Batch: 1589889), L-glutamine (2 mM, PanBiotech) and 2% of PS solution and 10 ng/ml of Brain-derived neurotrophic factor (BDNF, PanBiotech) and 1 ng/ml of Glial-Derived Neurotrophic Factor (GDNF, PanBiotech). Viable cells were counted in a Neubauer cytometer using the trypan blue exclusion test. The cells were seeded at a density of 40 000 cells/well in 96 well-plates pre-coated with poly-L-lysine (Corning Biocoat) and maintained in a humidified incubator at 37° C. in 5% CO2/95% air atmosphere. Half of the medium was changed every 2 days with fresh medium.
On day 6 of culture, the medium was removed and fresh medium was added, without or with MPP^+ (Sigma) at 4 μM diluted in control medium, 6 wells per condition were assessed.
On day 6 of culture, NSP01-001-E001 (2.5, 5, 50, 500 ng/ml, 2.5, 5, 25, 33.3 μg/ml) were solved or diluted in culture medium and then pre-incubated with primary mesencephalic neurons for 1 hour before the MPP^+ application. MPP^+ solution was added to a final concentration of 4 μM diluted in control medium.
After 48 hours intoxication, the cells were then fixed by a solution of 4% paraformaldehyde (PFA, Sigma) in PBS (PAN), pH=7.3 for 20 min at room temperature. The cells were washed again twice in PBS, and then were permeabilized and non-specific sites were blocked with a solution of PBS containing 0.1% of saponin (Sigma) and 1% FCS for 15 min at room temperature. Then, cells were incubated with Monoclonal Anti-Tyrosine Hydroxylase (TH, Sigma) antibody produced in mouse at dilution of 1/10000 in PBS containing 1% FCS, 0.1% saponin, for 2 h at room temperature.
The immunolabeled cultures were automatically examined with ImageXpress (Molecular Devices) equipped with a LED at ×10 magnification. For each condition (6 culture wells), 20 automatically fields per well (representing ˜80% of the total surface of the well) were analyzed. The total number of TH neurons was automatically analyzed using MetaXpress software (Molecular Devices). Data were expressed in percentage of control conditions (no intoxication, no MPP^+=100%) in order to express the MPP^+ injury. All values were expressed as mean±SEM (s.e. mean) of the 6 wells. Graphs and statistical analyses were performed on the different conditions (ANOVA followed by Dunnett's or PLSD Fisher's test when allowed, using GraphPad Prism software).
The protocol used in these assays is the same as described in example 4.
HA (1, 10, 100 nM, 1, 10, 100 μM), CA (5, 50, 500 pM, 5, 50, 500 nM, 1 μM), FA (100 pM, 1, 10, 100 nM, 1, 10, 100 μM and 1 mM) and mixtures thereof were solved or diluted in culture medium and then pre-incubated with primary mesencephalic neurons for 1 hour before the MPP^+ application. […]

## O=C(O)/C=C/c1ccc(O)c(O)c1 [CA, caffeic acid]
5 nM up to 1 μM
  TH positive neuron survival: large and significant protective effect

## COc1cc(/C=C/C(=O)O)ccc1O [FA, ferulic acid]
  concentration of maximal effect (bell shape curve): 10 µM
100 pM up to 100 nM
  TH positive neuron survival: inactive
From 1 μM to 1 mM
  TH positive neuron survival: significant protective effect

## C/C=C1\[C@H]2C=C(C)C[C@]1(N)c1ccc(=O)[nH]c1C2 [HA, huperzine A, reference compound]
1 nM
  TH positive neuron survival: inactive
100 nM
  TH positive neuron survival: > 90%
100 μM (in some well toxicity occurred)
  TH positive neuron survival: did not show some protective effect
From 10 nM up to 10 μM
  TH positive neuron survival: large and significant protective effect
